What was measured:
[1] = Gelatinizing ability in aqueous solutions of varying pH (gel formation observed); format: physicochemical; set-up: key to formation of a gel, pH 168 / formation of a gel, pH 401 / formation of a gel, pH 755 / formation of a gel, pH 918 / formation of a gel, milliQ water: the formation of gel is indicated by “G”; partial formation of gel is indicated by “LG”; unchanged aqueous solution is indicated by “S”; the formation of a precipitate is indicated by “P”; insolubility is indicated by “I”; conditions: for formation of a gel, pH 401: 10 mg compound in 0.5 ml buffer solution pH 401; for formation of a gel, pH 401 / formation of a gel, pH 755 / formation of a gel, pH 918 / formation of a gel, pH 168 / formation of a gel, milliQ water: 60° C. or more, ultrasound one hour, then room temperature; for formation of a gel, pH 755: 10 mg compound in 0.5 ml buffer solution pH 755; for formation of a gel, pH 918: 10 mg compound in 0.5 ml buffer solution pH 918; for formation of a gel, pH 168: 10 mg compound in 0.5 ml buffer solution; for formation of a gel, milliQ water: 10 mg compound in 0.5 ml milliQ water (distilled water); for solidification of milliQ water (distilled water) or water of pH 4–9: concentration of hydrogelatinizer 2wt %
Method: The gelatinizing ability was examined for aqueous solutions, of varying pH, of Compounds 1–7 synthesized in Manufacturing Examples 1–7. 10 mg of these compounds was placed in a sample bottle together with 0.5 ml of buffer solution adjusted to various pH, and while maintaining the temperature at 60° C. or more, the mixture was irradiated with ultrasound for one hour. After leaving the resulting aqueous solution at room temperature, the formation of a gel was observed.
In the table, the formation of gel is indicated by “G”, partial formation of gel is indicated by “LG”, unchanged aqueous solution is indicated by “S”, the formation of a precipitate is indicated by “P”, and insolubility is indicated by “I”.

[2] = Hydrogel formation in water (dissolve at 60° C. or more, leave at room temperature); format: physicochemical; conditions: left at room temperature
Method: Next, the method of manufacturing a hydrogel will be described. The gelatinizer of the invention is dissolved in an aqueous solution. A weakly acidic (pH 4) or weakly alkaline (pH 10) aqueous solution is preferred from the viewpoint of solubility. If the pH of the aqueous solution is less than 4, all of the phosphoric acid part is protonated, and it is difficult to dissolve in water. If the pH is higher than 10, the phosphoric acid part dissociates, and remains dissociated so that the water is not solidified. After dissolving the compound in the aqueous solution with heating, it is gradually cooled to room temperature and allowed to stand. In the dissolution process, heat alone is sufficient if the compound can be completely dissolved. If necessary, the compound can be efficiently converted to a simple dispersion in an aqueous solvent by ultrasound. The heating time is of the order of 30 minutes to 2 hours, but to ensure that dissolution of the compound is complete, it is preferably one hour or more. When the aqueous solution in which the compound has been dissolved is gradually cooled in air, and left at room temperature, the aqueous solution solidifies within one day-several days, and forms a hydrogel. […] The fluidity of the resulting gel may be varied by adjusting the pH of the water and the concentration of the gelatinizer during manufacture. In general, the formation of the hydrogel may be observed with the naked eye, but if the microstructure of the gel is observed using an optical microscope or scanning electron microscope, it can be seen that extremely fine fibers of the order of nanometers are entangled together to form a lattice structure.

[3] = 100 mg in 0.5 ml of water, dissolved at 60° C. or more

SMILES | formation of a gel, pH 401 [1] | formation of a gel, pH 755 [1] | formation of a gel, pH 918 [1] | formation of a gel, pH 168 [1] | formation of a gel, milliQ water [1] | hydrogel formation [2, 3] | solidification of milliQ water (distilled water) or water of pH 4–9 [1] | hydrogel formation ([2]; 1 mg in 0.5 ml of water, 60° C. or more, ultrasound one hour)
Cc1cn([C@H]2C[C@H](OP(=O)(O)OCCCCCCCCCCCCOP(=O)(O)O[C@H]3C[C@H](n4cc(C)c(=O)[nH]c4=O)O[C@@H]3CO)[C@@H](CO)O2)c(=O)[nH]c1=O [Compound 1, 1,12-(dodecanedioxy)bis(3′-phosphatidyl-2′-deoxythymidine)] | S | S | S | I | S | solidified after several days |  | 
Cc1cn([C@H]2C[C@H](OP(=O)(O)OCCCCCCCCCCCCCCCCCCCCOP(=O)(O)O[C@H]3C[C@H](n4cc(C)c(=O)[nH]c4=O)O[C@@H]3CO)[C@@H](CO)O2)c(=O)[nH]c1=O [Compound 7, 1,20-(icosanedioxy)bis-(3′-phosphatidyl-2′-deoxythymidine)] | LG | G | G | I | G |  | efficiently solidified | solidified after several days
Cc1cn(C2CC(OP(=O)(O)OCCCCCCCCCCCCCCOP(=O)(O)OC3CC(n4cc(C)c(=O)[nH]c4=O)OC3CO)C(CO)O2)c(=O)[nH]c1=O (stereo not shown) [Compound 3, 1,14-(tetradecanedioxy)bis-(3′-phosphatidyl-2′-deoxythymidine)] | S | S | S | I | S |  |  | 
Cc1cn([C@H]2C[C@H](OP(=O)(O)OCCCCCCCCCCCCCCCCOP(=O)(O)O[C@H]3C[C@H](n4cc(C)c(=O)[nH]c4=O)O[C@@H]3CO)[C@@H](CO)O2)c(=O)[nH]c1=O [Compound 5, 1,16-(hexadecanedioxy)-bis(3′-phosphatidyl-2′-deoxythymidine)] | S | S | S | I | P |  |  | 
Cc1cn([C@H]2C[C@H](OP(=O)(O)OCCCCCCCCCCCCCCCCCCOP(=O)(O)O[C@H]3C[C@H](n4cc(C)c(=O)[nH]c4=O)O[C@@H]3CO)[C@@H](CO)O2)c(=O)[nH]c1=O [Compound 6, 1,18-(octadecanedioxy)bis-(3′-phosphatidyl-2′-deoxythymidine)] | P | P | S | I | G |  | efficiently solidified | 
Cc1cn([C@H]2C[C@H](OP(=O)(O)OCCCCCCCCCCCCCOP(=O)(O)O[C@H]3C[C@H](n4cc(C)c(=O)[nH]c4=O)O[C@@H]3CO)[C@@H](CO)O2)c(=O)[nH]c1=O [Compound 2, 1,13-(tridecanedioxy)bis-(3′-phosphatidyl-2′-deoxythymidine)] | S | S | S | I | S | a hydrogel was obtained |  | 
Cc1cn(C2CC(OP(=O)(O)OCCCCCCCCCCCCCCCOP(=O)(O)OC3CC(n4cc(C)c(=O)[nH]c4=O)OC3CO)C(CO)O2)c(=O)[nH]c1=O (stereo not shown) [Compound 4, 1,15-(pentadecanedioxy)-bis(3′-phosphatidyl-2′-deoxythymidine)] | S | S | S | I | P |  |  | 
